From US7799830B2, “Cinnamic acid dimers, their preparation and the use thereof for treating neurodegenerative disease” (Korea Institute of Science and Technology, priority 2002, dated 2010) come the findings set out here.

Series [1] deals with mice administered with beta-amyloid. Description: passive avoidance test (learning and memory-retention ability of mice). In kind it is in vivo. As to conditions: mice given compound and beta-amyloid (1-42); 24 h after training; maximum 300 seconds; average of 10 mice; FIG. 1. The procedure: Four groups of 10 mice aged 4-5 weeks, weighing 20-25 g were used in the experiment. Each sample was administered with 1% DMSO and 1% CMC using a Sonde once a day (samples: A—physiological salin solution; B—beta-amyloid; C—cinnamic acid dimer (example 1) and beta-amyloid). After injecting […] of each sample to the cerebral ventricle 3 consecutive days, passive avoidance test was conducted on the first and second day for following the last injection. All data was attained by the average of 10 mice.
In order to examine the learning and memory-retention ability of a mouse, a passive avoidance test was carried out in accordance with the method described in Song et al, J. Neurochem., 1998, 71, 875. A passive avoidance chamber equipped with a light room and a dark room was prepared, wherein the floor of the dark room was designed to deliver an electrical shock to the test animal. First, a mouse was put in the light room and, upon entering the dark room, an electrical shock of 0.25 mA was given to the animal for 1 second. […] Then, the time it took for the mouse to enter the dark room was measured as a passive avoidance time. The maximum restriction time was set at 300 seconds, i.e., in cases where the mouse took more than 300 seconds to enter the dark room, the passive avoidance time was determined to be 300 seconds.

Series [2] has as its system Spraque-Dawley rats. The series is described as follows: oral toxicity test of cinnamic acid dimers. In kind it is in vivo. As for the experimental part:
Twenty female and twenty male Spraque-Dawley rats aged 4 weeks were divided into four groups including 5 female and 5 male rats, after being raised in a vivarium of a temperature of 22±3° C., a relative humidity of 50±10%, an illumination of 150-300 Lux for 1 week.
The cinnamic acid dimers prepared in Example 1 were dissolved in corn oil, and the rats of the 4 groups were orally administered with the solution at a dose of 300, 1,000, 3,000 and 10,000 mg/kg once. […] In addition, the rats were killed on the seventh day after administration, dissected, and internal organs were examined with the unaided eye. Daily weight change was measured from the administration day and thus the weight decrease of animals attributed to cinnamic acid dimers was observed.

As for `COc1cc(C=CC(=O)O)ccc1OCCOc1ccc(C=CC(=O)O)cc1OC` [Example 1, 1,2-di[2-methoxy-4-(2-carboxylvinyl)]phenoxyethane], the “step-through latency (passive avoidance time) compared with mice administered with beta-amyloid only” value in series [1] is recorded as “significantly higher”. The “pathological changes of internal organs at dissection” value in series [2] (group administered with 5,000 mg/kg or less, seventh day after administration, unaided eye) was “No pathological changes were seen with the naked eye”. In addition, in series [2] (single oral dose in corn oil, observed for 7 days, both males and females), the LD50 is given as 5,000 mg/kg.
